Patent publication US20070149509A1, “Use of vitamin e” (priority 2003, published 2007)

Tested on: melatonin receptor type 1 gene (MT1)
Assay: Impact of vitamin E on melatonin receptor expression in rat brain (high-density oligonucleotide microarrays)
Assay type: in vivo
Conditions: male rats, vitamin E containing diet vs vitamin E deficient diet, monitored over 9 months at 4 time-points, brain/hippocampus
Protocol: The impact of vitamin E on melatonin receptor expression in rat hippocampus was determined as follows: Two groups of male rats were randomly assigned to either a VE sufficient diet or to a diet deficient in VE for 270 days. High-density oligonucleotide microarrays comprising over 7,000 genes were used to assess the transcriptional response of the brain. Differential gene expression was monitored over a period of 9 months, at 4 different time-points.

vitamin E
melatonin receptor type 1 gene (MT1) expression in the brain: strongly and consistently up-regulated
